# Source: ChEMBL document CHEMBL1130896, “Nucleosides and nucleotides. 176. 2'-Deoxy-2'-hydroxylaminocytidine: a new antitumor nucleoside that inhibits DNA synthesis although it has a ribonucleoside structure” (Bioorg Med Chem Lett, 1998)
# Columns and labels:
# K562 = assay: In vitro antitumor activity against K562 cell line extracted formchronic myelogenous leukemia; assay type: functional, cell-based; conditions: Homo sapiens
# L1210 [1] = assay: In vitro antitumor activity using the incorporation of thymidine and uridine into RNA of L1210 cells at time 2 hr; assay type: functional, Mus musculus
# L1210 [2] = assay: In vitro antitumor activity using the incorporation of thymidine and uridine into RNA of L1210 cells at time 3 hr; assay type: functional, Mus musculus
# L1210 [3] = assay: In vitro antitumor activity using the incorporation of thymidine and uridine into DNA of L1210 cells at time 3 hr; assay type: functional, Mus musculus
# MIA PaCa-2 = assay: In vitro antitumor activity against MiaPaCa-2 cell line extracted form pancreas adenocarcinoma; assay type: functional, cell-based; conditions: Homo sapiens
# Huh-7 = assay: In vitro antitumor activity against HuH7 cell line extracted form hepatoma; assay type: functional, cell-based; conditions: Homo sapiens
# CCRF-CEM = assay: In vitro antitumor activity against CCRF-CEM cell line extracted form acute lymphoblastic leukemia; assay type: functional, cell-based; conditions: Homo sapiens
# A-375 = assay: In vitro antitumor activity against A375cell line extracted form melanoma; assay type: functional, cell-based; conditions: Homo sapiens
# MCF7 = assay: In vitro antitumor activity against MCF-7 cell line extracted form mammary carcinoma; assay type: functional, cell-based; conditions: Homo sapiens
# HL-60 = assay: In vitro antitumor activity against HL-60 cell line extracted formpromyelocytic leukemia; assay type: functional, cell-based; conditions: Homo sapiens
# COLO 320DM = assay: In vitro antitumor activity against COLO 320DM cell line extracted form colon adenocarcinoma; assay type: functional, cell-based; conditions: Homo sapiens
# L1210 [4] = assay: In vitro antitumor activity using the incorporation of thymidine and uridine into DNA of L1210 cells at time 2 hr; assay type: functional, Mus musculus
# PANC-1 = assay: In vitro antitumor activity against PANC cell line extracted form pancreas adenocarcinoma; assay type: functional, cell-based; conditions: Homo sapiens
# L1210 [5] = assay: In vitro antitumor activity using the incorporation of thymidine and uridine into RNA of L1210 cells at time 1 hr; assay type: functional, Mus musculus
# HT-1080 = assay: In vitro antitumor activity against HT1080 cell line extracted form fibrosarcoma; assay type: functional, cell-based; conditions: Homo sapiens
# L1210 [6] = assay: In vitro antitumor activity using the incorporation of thymidine and uridine into DNA of L1210 cells at time 1 hr; assay type: functional, Mus musculus
smiles,measurement,setting,value
Nc1ccn(C2OC(CO)[C@@H](O)[C@H]2NO)c(=O)n1 (stereo partly specified),IC50,K562,2.77 µM
same,Inhibition,L1210 [1],20%
same,Inhibition,L1210 [2],23%
same,Inhibition,L1210 [3],95%
same,IC50,MIA PaCa-2,4 µM
same,IC50,Huh-7,1.47 µM
same,IC50,CCRF-CEM,1.73 µM
same,IC50,A-375,0.89 µM
same,IC50,MCF7,1.3 µM
same,IC50,HL-60,5.76 µM
same,IC50,COLO 320DM,8.93 µM
same,Inhibition,L1210 [4],98%
same,IC50,PANC-1,69.1 µM
same,Inhibition,L1210 [5],21%
same,IC50,HT-1080,2.53 µM
same,Inhibition,L1210 [6],83%
